Calls of active or inactive are those of the source. The calls are words filed in the database; no cut-off is given here.
What was measured:
[1] = target: T1, Pantetheinase (Mus musculus, UniProt Q9Z0K8); assay: Mouse plasma vanin-1 assay
T1 sequence (Q9Z0K8 whole entry): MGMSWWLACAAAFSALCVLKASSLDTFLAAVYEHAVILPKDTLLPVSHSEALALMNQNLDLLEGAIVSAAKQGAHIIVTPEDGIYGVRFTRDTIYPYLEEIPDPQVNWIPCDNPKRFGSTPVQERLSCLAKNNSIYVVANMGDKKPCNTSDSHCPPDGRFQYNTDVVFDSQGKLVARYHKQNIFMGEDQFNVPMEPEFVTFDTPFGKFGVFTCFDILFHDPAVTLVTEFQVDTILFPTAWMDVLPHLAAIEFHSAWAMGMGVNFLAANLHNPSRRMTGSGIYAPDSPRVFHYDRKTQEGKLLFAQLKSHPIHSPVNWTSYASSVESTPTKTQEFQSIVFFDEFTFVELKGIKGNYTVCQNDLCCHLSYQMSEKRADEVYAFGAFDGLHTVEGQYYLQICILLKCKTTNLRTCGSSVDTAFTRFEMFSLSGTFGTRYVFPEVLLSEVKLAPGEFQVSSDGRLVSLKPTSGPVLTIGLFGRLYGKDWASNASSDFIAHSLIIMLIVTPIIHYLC

[2] = target: T2, Vanin 1 (Rattus norvegicus, UniProt Q4KLZ0)
T2 sequence (Q4KLZ0 whole entry): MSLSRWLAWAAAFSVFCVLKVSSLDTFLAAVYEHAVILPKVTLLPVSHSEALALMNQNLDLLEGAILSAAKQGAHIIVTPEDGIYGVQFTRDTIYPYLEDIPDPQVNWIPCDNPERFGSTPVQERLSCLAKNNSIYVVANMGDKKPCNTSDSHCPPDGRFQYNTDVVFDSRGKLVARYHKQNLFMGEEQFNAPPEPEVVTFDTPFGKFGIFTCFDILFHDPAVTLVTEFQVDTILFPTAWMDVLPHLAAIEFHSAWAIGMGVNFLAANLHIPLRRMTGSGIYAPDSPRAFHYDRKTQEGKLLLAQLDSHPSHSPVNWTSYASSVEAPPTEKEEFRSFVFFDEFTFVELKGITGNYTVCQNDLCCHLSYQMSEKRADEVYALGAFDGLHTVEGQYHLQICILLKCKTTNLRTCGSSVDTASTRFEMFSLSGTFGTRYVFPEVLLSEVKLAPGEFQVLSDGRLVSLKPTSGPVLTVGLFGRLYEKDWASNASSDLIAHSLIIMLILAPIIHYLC

[3] = target: T1, Pantetheinase; assay: Mouse recombinant vanin-1 assay
[4] = target: T3, Pantetheinase (Homo sapiens, UniProt O95497); assay: Human recombinant vanin-1 assay
T3 sequence (O95497 whole entry): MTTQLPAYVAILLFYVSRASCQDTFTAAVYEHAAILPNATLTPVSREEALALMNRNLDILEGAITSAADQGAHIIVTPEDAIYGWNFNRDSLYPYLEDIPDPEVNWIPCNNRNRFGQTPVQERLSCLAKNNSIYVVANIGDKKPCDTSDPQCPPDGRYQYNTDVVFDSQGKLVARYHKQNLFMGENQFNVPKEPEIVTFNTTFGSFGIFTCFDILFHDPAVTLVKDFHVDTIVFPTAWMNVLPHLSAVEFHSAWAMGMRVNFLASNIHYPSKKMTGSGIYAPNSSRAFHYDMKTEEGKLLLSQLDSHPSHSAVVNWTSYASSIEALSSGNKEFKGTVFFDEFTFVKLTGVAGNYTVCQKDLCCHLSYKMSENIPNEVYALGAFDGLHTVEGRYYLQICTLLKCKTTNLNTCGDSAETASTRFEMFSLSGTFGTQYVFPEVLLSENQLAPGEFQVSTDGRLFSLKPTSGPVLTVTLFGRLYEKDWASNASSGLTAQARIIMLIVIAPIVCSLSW

[5] = target: T3, Pantetheinase; assay: Human plasma vanin-1 assay

SMILES	IC50 [1]	IC50 [2]	IC50 [3]	IC50 [4]	IC50 [5]
O=C(c1cnc(NCc2cnccn2)nc1)N1CCC2(CCOCC2)C1 [PFI-653]	53.4 nM (active)	12 nM (active)	24.5 nM (active)	–	–
Cc1nc(NCc2cnccn2)ncc1C(=O)N1CCC2(CCOCC2)C1 [PFI-653-N]	15000 nM (not active)	–	15000 nM (not active)	17600 nM (not active)	3000 nM (not active)

Reference: ChEMBL document CHEMBL4800725 (2021)
